Among the data in PubChem BioAssay AID651649 (Sanford-Burnham Center for Chemical Genomics, 2012) are IC50 values, retold here.

The assay deals with CRF-binding protein / CRF-R2 receptor complex (human). The experiment in a line: inhibition of CRF-induced CRF-R2.BP calcium signal – cell-based, 384-well, HEK293, calcium flux, powder samples, SAR follow-up (AID 651649). As to conditions: Fluo4.

Calls of active or inactive are those of the source.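 Rule for the calls: active = IC50 below 20 µM; inactive = the rest.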 Where only a bound is given, the exact number is not on record here.

Consider `O=C(COc1cc(Cl)ccc1Cl)N1CCNC1=O`, for which the IC50 is 5850 nM.

For `O=C(O)c1ccc(COc2ccccc2C=C2C(=O)c3ccccc3C2=O)cc1`, the IC50 was 4520 nM.

Take `CC(C)(C)c1cc(C(=O)NNC(=O)Nc2cccc(Cl)c2)n(Cc2ccccc2)n1`: the IC50 is 2540 nM.

For the compound `Cc1ccccc1Cn1ccc(NC(=O)c2cc3ncc(Br)cn3n2)n1`, the IC50 was > 40000 nM (inactive).

In the case of `COc1cccc(C2CC(c3cccs3)=NN2C(=O)c2ccco2)c1O` (stereo not drawn), the IC50 was 1540 nM.

For the compound `CCOc1ccc(Cl)cc1S(=O)(=O)n1nnc2ccccc21`, the IC50 was 1170 nM.

Regarding `C=CCOc1ccc(/C=C2\SC(=S)N(NS(=O)(=O)c3ccccc3)C2=O)cc1`, the IC50 was 4810 nM.

On to `COC(=O)c1ccc(CSc2nc3ccccc3c(=O)n2-c2ccccc2)o1`, for which the IC50 was 5030 nM.

On to `Cc1ccc(S(=O)(=O)N(CC(=O)Nc2ccccc2C(=O)O)c2ccc(Cl)cc2)cc1`, for which the IC50 was 3220 nM.

Regarding `COc1cccc(NC(=S)NC(Cc2ccccc2)c2ccccc2)c1` (stereo not drawn), the IC50 was 1040 nM.

`Cc1ccccc1-c1cc2nc(-c3ccc([N+](=O)[O-])cc3)cc(=O)n2[nH]1`: the IC50 was > 40000 nM (inactive).

As for `Brc1ccccc1-c1nnc(CSc2nnnn2-c2ccccc2)o1`, the IC50 is 632 nM.

Consider `Cc1ccc(NC(=O)c2ccccc2NS(=O)(=O)c2ccc(F)cc2)cc1S(=O)(=O)N1CCCCC1`, for which the IC50 was > 40000 nM (inactive).

`O=c1oc2ccc3ccccc3c2cc1-c1nnc(-c2ccccc2)o1`: the IC50 was 636 nM.

Regarding `COc1ccc(C(=O)COC(=O)c2cccnc2SC)cc1`, the IC50 was > 20000 nM (inactive).

As for `COc1ccc(Oc2ccc(C(F)(F)F)cc2NC(=O)c2ccc(OC)cc2)cc1`, the IC50 is > 40000 nM (inactive).

As to `CC(=O)NC(Cc1ccc(C)cc1)C(=O)NC1CCN(c2ncccc2[N+](=O)[O-])CC1` (stereo not drawn), the IC50 was 2760 nM.

As to `CC(C)Cn1c(SCC(=O)N2CCc3ccccc3C2)nc2cc(Cl)ccc2c1=O`, the IC50 was 946 nM.

In the case of `O=C(COc1ccc2ccccc2c1)Nc1cccc(C(=O)Nc2ccccc2C(=O)O)c1`, the half-inhibitory concentration (IC50) is 7540 nM.

Turning to `Cc1ccc(-n2nnnc2SCc2nnc(-c3ccccc3Br)o2)c(C)c1`, the IC50 is 6040 nM.

As to `NC(=O)c1ccc(NCc2ccco2)c([N+](=O)[O-])c1`, the IC50 was 1350 nM.

As for `COc1ccc([N+](=O)[O-])cc1NC(=O)c1ccccc1SC`, the IC50 was 214 nM.

On to `Cc1nc2nc(SCC(=O)c3cccc([N+](=O)[O-])c3)[nH]c2cc1Br`, for which the IC50 entry is “inactive”.

Turning to `COCCNc1nc2c(S(=O)(=O)c3cc(C)ccc3C)nnn2c2ccccc12`, the IC50 is > 40000 nM (inactive).

As to `COc1cccc2cc(-c3nnc(-c4ccccc4)o3)c(=O)oc12`, the IC50 is under 125 nM.

Regarding `Cc1ccc2cccc(Oc3ncnc4scc(-c5ccccc5)c34)c2n1`, the IC50 is 8730 nM.

For the compound `CC1CC(C)CN(C(=O)CSc2nc(Cc3cccs3)nc3ccccc23)C1` (stereo not drawn), the IC50 was 2380 nM.

On to `Cn1c(COc2ccccc2)nnc1SCC(=O)c1cccc([N+](=O)[O-])c1`, for which the IC50 is > 40000 nM (inactive).
